Data reported in patent US12269800B2, “Delivery of therapeutic alkaloid compounds” (priority 2021, dated 2025).
Where two headings read alike, the source gives them in different places.

What was measured:
[1] = 5 µM
[2] = 5 µM; remark: listed apart in the source

Q: Which results are given for `CCC(CC)C(=O)OC1=C[C@@H]2N(C)CC[C@]2(c2ccc(OC)c(OC)c2)CC1` [Compound 426, (3aS,7aS)-3a-(3,4-dimethoxyphenyl)-1-methyl-2,3,3a,4,5,7a-hexahydro-1H-indol-6-yl 2-ethylbutanoate]?
A: Human Plasma Prodrug (%) ([1]; 0 min): 100.0%; Human Plasma Prodrug (%) ([1]; 10 min): 87.1%; Human Plasma Prodrug (%) ([1]; 30 min): 80.3%; Human Plasma Prodrug (%) ([1]; 60 min): 79.2%; Human Plasma Prodrug (%) ([1]; 120 min): 73.6%; Human Plasma Prodrug (%) ([1]; 240 min): 66.4%; Rat Plasma Prodrug (%) ([2]; 0 min): 100.0%; Rat Plasma Prodrug (%) ([2]; 10 min): 70.2%; Rat Plasma Prodrug (%) ([2]; 30 min): 33.2%; Rat Plasma Prodrug (%) ([2]; 60 min): 9.5%; Rat Plasma Prodrug (%) ([2]; 120 min): 0.9%; Rat Plasma Prodrug (%) ([2]; 240 min): 0.1%

Q: With `COc1ccc([C@@]23CCC(OC(=O)c4c(C)cc(C)cc4C)=C[C@@H]2N(C)CC3)cc1OC` [Compound 356, (3aS,7aS)-3a-(3,4-dimethoxyphenyl)-1-methyl-2,3,3a,4,5,7a-hexahydro-1H-indol-6-yl 2,4,6-trimethylbenzoate] as the molecule, how does the “Human Plasma Prodrug (%)” value ([1]; 0 min) read?
A: The value was 100.0%.

Q: And the “Human Plasma Prodrug (%)” value ([1]; 10 min)?
A: The value was over 99%.

Q: And the “Human Plasma Prodrug (%)” value ([1]; 30 min)?
A: Its value is over 99%.

Q: And the “Human Plasma Prodrug (%)” value ([1]; 60 min)?
A: The value was over 99%.

Q: And the “Human Plasma Prodrug (%)” value ([1]; 120 min)?
A: Its value is over 99%.

Q: What about the “Human Plasma Prodrug (%)” value ([1]; 240 min) of the same molecule?
A: The value was over 99%.

Q: What about the “Rat Plasma Prodrug (%)” value ([2]; 0 min) of the same molecule?
A: Its value is 100.0%.

Q: What about the “Rat Plasma Prodrug (%)” value ([2]; 10 min) of the same molecule?
A: The value was over 99%.

Q: What about the “Rat Plasma Prodrug (%)” value ([2]; 30 min) of the same molecule?
A: The value was over 99%.

Q: What about the “Rat Plasma Prodrug (%)” value ([2]; 60 min) of the same molecule?
A: The value was over 99%.

Q: And the “Rat Plasma Prodrug (%)” value ([2]; 120 min)?
A: Its value is over 99%.

Q: What about the “Rat Plasma Prodrug (%)” value ([2]; 240 min) of the same molecule?
A: Its value is 95.8%.

Q: Which results are given for `CCC(C)C(=O)OC1=C[C@@H]2N(C)CC[C@]2(c2ccc(OC)c(OC)c2)CC1` (stereo partly drawn) [Compound 425, (3aS,7aS)-3a-(3,4-dimethoxyphenyl)-1-methyl-2,3,3a,4,5,7a-hexahydro-1H-indol-6-yl 2-methylbutanoate]?
A: Human Plasma Prodrug (%) ([1]; 0 min): 100.0%; Human Plasma Prodrug (%) ([1]; 10 min): 6.5%; Human Plasma Prodrug (%) ([1]; 30 min): 4.8%; Human Plasma Prodrug (%) ([1]; 60 min): 4.0%; Human Plasma Prodrug (%) ([1]; 120 min): 3.0%; Human Plasma Prodrug (%) ([1]; 240 min): 1.9%; Rat Plasma Prodrug (%) ([2]; 0 min): 100.0%; Rat Plasma Prodrug (%) ([2]; 10 min): 4.4%; Rat Plasma Prodrug (%) ([2]; 30 min): 0.1%; Rat Plasma Prodrug (%) ([2]; 60 min): 0.0%; Rat Plasma Prodrug (%) ([2]; 120 min): 0.0%; Rat Plasma Prodrug (%) ([2]; 240 min): 0.0%

Q: What does the source list for `COc1ccc([C@@]23CCC(OC(=O)CC(C)(C)C)=C[C@@H]2N(C)CC3)cc1OC` [Compound 431, (3aS,7aS)-3a-(3,4-dimethoxyphenyl)-1-methyl-2,3,3a,4,5,7a-hexahydro-1H-indol-6-yl 3,3-dimethylbutanoate]?
A: Human Plasma Prodrug (%) ([1]; 0 min): 100.0%; Human Plasma Prodrug (%) ([1]; 10 min): 82.1%; Human Plasma Prodrug (%) ([1]; 30 min): 69.0%; Human Plasma Prodrug (%) ([1]; 60 min): 62.8%; Human Plasma Prodrug (%) ([1]; 120 min): 52.6%; Human Plasma Prodrug (%) ([1]; 240 min): 37.4%; Rat Plasma Prodrug (%) ([2]; 0 min): 100.0%; Rat Plasma Prodrug (%) ([2]; 10 min): 74.5%; Rat Plasma Prodrug (%) ([2]; 30 min): 45.7%; Rat Plasma Prodrug (%) ([2]; 60 min): 16.5%; Rat Plasma Prodrug (%) ([2]; 120 min): 2.3%; Rat Plasma Prodrug (%) ([2]; 240 min): 0.2%

Q: With `CCCC(CC)CC(=O)OC1=C[C@@H]2N(C)CC[C@]2(c2ccc(OC)c(OC)c2)CC1` (stereo partly drawn) [Compound 398, (3aS,7aS)-3a-(3,4-dimethoxyphenyl)-1-methyl-2,3,3a,4,5,7a-hexahydro-1H-indol-6-yl 3-ethylhexanoate] as the molecule, how does the “Human Plasma Prodrug (%)” value ([1]; 0 min) read?
A: The value was 100.0%.

Q: What about the “Human Plasma Prodrug (%)” value ([1]; 10 min) of the same molecule?
A: Its value is 96.4%.

Q: And the “Human Plasma Prodrug (%)” value ([1]; 30 min)?
A: The value was 85.0%.

Q: What about the “Human Plasma Prodrug (%)” value ([1]; 60 min) of the same molecule?
A: Its value is 72.4%.

Q: What about the “Human Plasma Prodrug (%)” value ([1]; 120 min) of the same molecule?
A: The value was 51.6%.

Q: What about the “Human Plasma Prodrug (%)” value ([1]; 240 min) of the same molecule?
A: The value was 25.5%.

Q: What about the “Rat Plasma Prodrug (%)” value ([2]; 0 min) of the same molecule?
A: The value was 100.0%.

Q: And the “Rat Plasma Prodrug (%)” value ([2]; 10 min)?
A: The value was 2.8%.

Q: What about the “Rat Plasma Prodrug (%)” value ([2]; 30 min) of the same molecule?
A: The value was 0.7%.

Q: And the “Rat Plasma Prodrug (%)” value ([2]; 60 min)?
A: Its value is 0.1%.

Q: What about the “Rat Plasma Prodrug (%)” value ([2]; 120 min) of the same molecule?
A: Its value is 0.0%.

Q: And the “Rat Plasma Prodrug (%)” value ([2]; 240 min)?
A: The value was 0.0%.

Q: For `CCCCCCCC(=O)OC1=C[C@@H]2N(C)CC[C@]2(c2ccc(OC)c(OC)c2)CC1` [Compound 395, (3aS,7aS)-3a-(3,4-dimethoxyphenyl)-1-methyl-2,3,3a,4,5,7a-hexahydro-1H-indol-6-yl octanoate], which “Human Plasma Prodrug (%)” value ([1]; 0 min) is on record?
A: Its value is 100.0%.

Q: What about the “Human Plasma Prodrug (%)” value ([1]; 10 min) of the same molecule?
A: Its value is 13.9%.

Q: What about the “Human Plasma Prodrug (%)” value ([1]; 30 min) of the same molecule?
A: Its value is 3.5%.

Q: What about the “Human Plasma Prodrug (%)” value ([1]; 60 min) of the same molecule?
A: The value was 1.1%.

Q: What about the “Human Plasma Prodrug (%)” value ([1]; 120 min) of the same molecule?
A: Its value is 0.3%.

Q: What about the “Human Plasma Prodrug (%)” value ([1]; 240 min) of the same molecule?
A: Its value is 0.1%.

Q: And the “Rat Plasma Prodrug (%)” value ([2]; 0 min)?
A: The value was 100.0%.

Q: And the “Rat Plasma Prodrug (%)” value ([2]; 10 min)?
A: Its value is 0.3%.

Q: What about the “Rat Plasma Prodrug (%)” value ([2]; 30 min) of the same molecule?
A: Its value is 0.1%.

Q: What about the “Rat Plasma Prodrug (%)” value ([2]; 60 min) of the same molecule?
A: The value was 0.1%.

Q: And the “Rat Plasma Prodrug (%)” value ([2]; 120 min)?
A: The value was 0.1%.

Q: And the “Rat Plasma Prodrug (%)” value ([2]; 240 min)?
A: Its value is 0.1%.

Q: Which results are given for `CCCC(CCC)C(=O)OC1=C[C@@H]2N(C)CC[C@]2(c2ccc(OC)c(OC)c2)CC1` [Compound 427, (3aS,7aS)-3a-(3,4-dimethoxyphenyl)-1-methyl-2,3,3a,4,5,7a-hexahydro-1H-indol-6-yl 2-propylpentanoate]?
A: Human Plasma Prodrug (%) ([1]; 0 min): 100.0%; Human Plasma Prodrug (%) ([1]; 10 min): >99%; Human Plasma Prodrug (%) ([1]; 30 min): 96.6%; Human Plasma Prodrug (%) ([1]; 60 min): 96.9%; Human Plasma Prodrug (%) ([1]; 120 min): 95.5%; Human Plasma Prodrug (%) ([1]; 240 min): 91.2%; Rat Plasma Prodrug (%) ([2]; 0 min): 100.0%; Rat Plasma Prodrug (%) ([2]; 10 min): 93.6%; Rat Plasma Prodrug (%) ([2]; 30 min): 73.4%; Rat Plasma Prodrug (%) ([2]; 60 min): 43.9%; Rat Plasma Prodrug (%) ([2]; 120 min): 16.0%; Rat Plasma Prodrug (%) ([2]; 240 min): 2.3%

Q: For `CCC(C)(CC)C(=O)OC1=C[C@@H]2N(C)CC[C@]2(c2ccc(OC)c(OC)c2)CC1` [Compound 430, (3aS,7aS)-3a-(3,4-dimethoxyphenyl)-1-methyl-2,3,3a,4,5,7a-hexahydro-1H-indol-6-yl 2-ethyl-2-methylbutanoate], which “Human Plasma Prodrug (%)” value ([1]; 0 min) is on record?
A: The value was 100.0%.

Q: And the “Human Plasma Prodrug (%)” value ([1]; 10 min)?
A: The value was over 99%.

Q: And the “Human Plasma Prodrug (%)” value ([1]; 30 min)?
A: Its value is over 99%.

Q: What about the “Human Plasma Prodrug (%)” value ([1]; 60 min) of the same molecule?
A: The value was over 99%.

Q: What about the “Human Plasma Prodrug (%)” value ([1]; 120 min) of the same molecule?
A: The value was over 99%.

Q: And the “Human Plasma Prodrug (%)” value ([1]; 240 min)?
A: Its value is 95.9%.

Q: What about the “Rat Plasma Prodrug (%)” value ([2]; 0 min) of the same molecule?
A: Its value is 100.0%.

Q: What about the “Rat Plasma Prodrug (%)” value ([2]; 10 min) of the same molecule?
A: Its value is 98.2%.

Q: What about the “Rat Plasma Prodrug (%)” value ([2]; 30 min) of the same molecule?
A: Its value is 98.3%.

Q: What about the “Rat Plasma Prodrug (%)” value ([2]; 60 min) of the same molecule?
A: Its value is 97.1%.

Q: And the “Rat Plasma Prodrug (%)” value ([2]; 120 min)?
A: Its value is 94.1%.

Q: And the “Rat Plasma Prodrug (%)” value ([2]; 240 min)?
A: The value was 92.8%.
